According to US8796268B2, “Heteroaryls and uses thereof” (Millennium Pharmaceuticals, Inc., priority 2010, dated 2014):

Tests used:
Type in all cases: biochemical
Human PI3K delta = molecular target: T1, Human PI3K delta (Homo sapiens, UniProt O00329); assay: Human PI3K delta enzyme assay (HTRF); conditions: concentration not given, b1389 states 1.0 μM for PI3K δ and γ; for inhibition at 1 µM: read-out: p110 delta Percent Inhibition
T1 construct: His (N); host or cells: SF9 insect cells (baculovirus)
Description: (§1) The catalytic subunits of PI3Ks are cloned into either pDEST8(p110 alpha) or pDEST10(p110beta, p110delta, and p110gamma) as N-terminal His tagged fusion proteins using the Gateway system (Invitrogen, catalog#11804-010 for pDEST8 and 11806-015 for pDEST10). The sequences are verified before recombinant protein expression using the Baculovirus Expression System with Gateway® Technology. The accession numbers for the subunits are as follows: • p110 alpha (GB:U79143) • p110beta (GB: S67334) • p110delta (GB: U86453) • p110gamma (GB: X83368) • The regulatory subunits of PI3Ks are cloned into pDEST8 as un-tagged protein using the Gateway system (Catalog#11804-010). The sequences are verified before recombinant protein expression using the Baculovirus Expression System with Gateway® Technology. The accession numbers for the subunits are as following: • p85 alpha (GB: BC030815) • p101(GB: AB028925) • VPS34 (accession number GB:BC033004) is cloned into pDEST20—Thombin as N-terminal GST tagged fusion proteins using the Gateway system (Invitrogen, catalog#11804-013). The sequences are verified before recombinant protein expression using the Baculovirus Expression System with Gateway® Technology.
(§2) For expression of the p110 complexes, the p85 (MOI of 4) is co-infected with p110 alpha, beta, and delta respectively (1MOI) in SF9 cells and harvested at 60 hours post co-infection. P110 gamma was infected at 1 MOI and harvested at 60 hours post infection.
(§3) For purification, PI3Ks are purified by Ni-NTA Agarose (Qiagen #30250) followed by Mono Q 10/100 GL (Ge Healthcare #17-5167-01). VPS34 is purified by Glutathione Sepharose 4 Fast Flow (GE Healthcare #17-5132-03) followed by HiTrap Q (GE Healthcare #17-1153-01).
(§4) 0.5 uL compounds in DMSO are added to wells of a 384 well microtitre plate (Corning 3575). At room temperature: 10 ul PI3K reaction buffer (50 mM Hepes, 5 mM DTT, 150 mM NaCl, 10 mM beta-glycerophosphate, 10 mM MgCl2, 0.25 mM sodium cholate and 0.001% CHAPS, pH 7.00) containing ATP (25 uM, Promega) is added followed immediately by 10 ul PI3K reaction buffer containing di-C8 P1(4,5)P2 (3.5 uM, CellSignals) and PI3Kalpha (0.4875 nM, Millennium Protein Sciences Group) and the mixture is incubated with shaking at room temperature for 30 minutes. Then 5 ul PI3K stop mix (50 mM Hepes, 5 mM DTT, 150 mM NaCl, 0.01% Tween-20, 15 mM EDTA and 25 nM biotin-PI(3,4,5)P3 (Echelon) is added to quench the reaction followed immediately by addition of 5 ul HTRF detection mix (50 mM Hepes, 5 mM DTT, 150 mM NaCl, 0.01% Tween-20, 40 mM KF, 1.0 nM GST:GRP-1 PH domain (Millennium Protein Sciences Group), 15 nM Streptavidin-XL (CisBio) and 0.375 nM anti-GST Eu++ antibody (CisBio) at pH 7.00). The plates are then incubated for 1 hour at room temperature with shaking and then read on a BMG PheraStar Plus reader.
(§5) 2) Human PI3K beta, delta and gamma isoforms are tested using the procedure described for PI3K alpha above but with the following changes: PI3K beta (5.25 nM), PI3K delta (0.75 nM) and PI3K gamma (5 nM). All isoforms supplied by Millennium Protein Science Group.
(§6) For the assay methods described above, test compound percent inhibition, at various concentrations, is calculated relative to control (DMSO and EDTA) treated samples. Compound concentration versus percent inhibition curves are fitted to generate IC50 values. One skilled in the art will appreciate that the values generated either as percentage inhibition at a single concentration or IC50 values are subject to experimental variation.

Human PI3K beta = molecular target: T2, Human PI3K beta (Homo sapiens, UniProt P42338); assay: Human PI3K beta enzyme assay (HTRF); conditions: concentration not given, b1387 states 1.1 μM for PI3K α and β; for inhibition at 1.1 µM: read-out: p110 beta Percent Inhibition
T2 construct: His (N); host or cells: SF9 insect cells (baculovirus)
How it was run: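 Compounds were mixed with 25 uM ATP, then with 3.5 uM di-C8 PI(4,5)P2 and His-tagged PI3K isoform (β 5.25 nM, δ 0.75 nM, γ 5 nM) at pH 7.00. After 30 min at room temperature, EDTA stopped the reaction and PIP3 was measured by HTRF over 1 h.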

Human PI3K gamma = molecular target: T3, Human PI3K gamma (Homo sapiens, UniProt P48736); assay: Human PI3K gamma enzyme assay (HTRF); conditions: concentration not given, b1389 states 1.0 μM for PI3K δ and γ; for inhibition at 1 µM: read-out: p110 gamma Percent Inhibition
T3 construct: His (N); host or cells: SF9 insect cells (baculovirus)
Description: as §1, §2, §3, §4, §5, §6

Human PI3K alpha = molecular target: T4, Human PI3K alpha (Homo sapiens, UniProt P42336); assay: Human PI3K alpha enzyme assay (HTRF); conditions: concentration not given, b1387 states 1.1 μM for PI3K α and β; for inhibition at 1.1 µM: read-out: p110 alpha Percent Inhibition
T4 construct: His (N); host or cells: SF9 insect cells (baculovirus)
T4 sequence (P42336 whole entry): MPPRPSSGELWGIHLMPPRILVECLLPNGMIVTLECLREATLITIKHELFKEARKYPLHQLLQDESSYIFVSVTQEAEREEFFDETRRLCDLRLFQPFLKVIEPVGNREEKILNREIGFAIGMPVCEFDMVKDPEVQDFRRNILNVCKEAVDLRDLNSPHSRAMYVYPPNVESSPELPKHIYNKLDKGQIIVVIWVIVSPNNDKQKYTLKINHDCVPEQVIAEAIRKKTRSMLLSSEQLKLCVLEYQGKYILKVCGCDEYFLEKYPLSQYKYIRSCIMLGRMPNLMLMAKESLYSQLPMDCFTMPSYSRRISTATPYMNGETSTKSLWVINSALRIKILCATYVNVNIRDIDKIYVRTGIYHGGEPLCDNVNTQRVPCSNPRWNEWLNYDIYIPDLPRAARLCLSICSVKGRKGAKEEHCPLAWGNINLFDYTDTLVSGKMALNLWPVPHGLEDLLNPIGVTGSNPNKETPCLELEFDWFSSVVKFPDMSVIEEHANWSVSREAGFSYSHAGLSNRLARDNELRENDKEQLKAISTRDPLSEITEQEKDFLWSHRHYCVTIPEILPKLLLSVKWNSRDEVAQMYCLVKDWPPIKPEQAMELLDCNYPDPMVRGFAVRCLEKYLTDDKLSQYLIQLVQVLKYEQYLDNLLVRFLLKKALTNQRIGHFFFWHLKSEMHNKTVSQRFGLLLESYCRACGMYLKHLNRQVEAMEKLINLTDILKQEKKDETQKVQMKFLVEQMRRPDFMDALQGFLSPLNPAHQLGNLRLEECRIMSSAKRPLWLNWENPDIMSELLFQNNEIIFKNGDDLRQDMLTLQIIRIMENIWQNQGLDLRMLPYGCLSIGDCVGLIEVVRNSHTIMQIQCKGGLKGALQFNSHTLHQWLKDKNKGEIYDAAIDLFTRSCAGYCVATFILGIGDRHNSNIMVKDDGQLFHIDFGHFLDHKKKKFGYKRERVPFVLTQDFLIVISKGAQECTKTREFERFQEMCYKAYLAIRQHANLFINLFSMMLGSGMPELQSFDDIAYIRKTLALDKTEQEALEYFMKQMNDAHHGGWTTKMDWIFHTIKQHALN
T4 sequence (P27986 whole entry partner): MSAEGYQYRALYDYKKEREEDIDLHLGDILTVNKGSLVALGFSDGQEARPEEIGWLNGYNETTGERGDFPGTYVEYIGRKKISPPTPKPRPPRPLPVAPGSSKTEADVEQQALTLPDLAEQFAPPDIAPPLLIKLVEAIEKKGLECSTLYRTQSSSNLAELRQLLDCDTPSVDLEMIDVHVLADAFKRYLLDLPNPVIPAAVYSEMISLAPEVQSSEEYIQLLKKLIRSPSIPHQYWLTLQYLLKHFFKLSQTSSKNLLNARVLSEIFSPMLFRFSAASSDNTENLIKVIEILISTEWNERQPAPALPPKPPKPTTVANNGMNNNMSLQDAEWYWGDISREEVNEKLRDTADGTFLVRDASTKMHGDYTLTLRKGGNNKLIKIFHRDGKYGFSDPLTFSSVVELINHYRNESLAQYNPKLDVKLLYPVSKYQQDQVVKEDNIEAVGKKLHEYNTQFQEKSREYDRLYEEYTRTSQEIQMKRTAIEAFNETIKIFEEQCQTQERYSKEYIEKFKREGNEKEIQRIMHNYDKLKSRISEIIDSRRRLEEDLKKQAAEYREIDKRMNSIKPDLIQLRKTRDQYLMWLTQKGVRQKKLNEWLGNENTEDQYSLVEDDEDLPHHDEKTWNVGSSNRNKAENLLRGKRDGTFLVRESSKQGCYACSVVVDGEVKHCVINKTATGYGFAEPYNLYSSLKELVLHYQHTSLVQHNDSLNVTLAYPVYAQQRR

T3 sequence (P48736 whole entry): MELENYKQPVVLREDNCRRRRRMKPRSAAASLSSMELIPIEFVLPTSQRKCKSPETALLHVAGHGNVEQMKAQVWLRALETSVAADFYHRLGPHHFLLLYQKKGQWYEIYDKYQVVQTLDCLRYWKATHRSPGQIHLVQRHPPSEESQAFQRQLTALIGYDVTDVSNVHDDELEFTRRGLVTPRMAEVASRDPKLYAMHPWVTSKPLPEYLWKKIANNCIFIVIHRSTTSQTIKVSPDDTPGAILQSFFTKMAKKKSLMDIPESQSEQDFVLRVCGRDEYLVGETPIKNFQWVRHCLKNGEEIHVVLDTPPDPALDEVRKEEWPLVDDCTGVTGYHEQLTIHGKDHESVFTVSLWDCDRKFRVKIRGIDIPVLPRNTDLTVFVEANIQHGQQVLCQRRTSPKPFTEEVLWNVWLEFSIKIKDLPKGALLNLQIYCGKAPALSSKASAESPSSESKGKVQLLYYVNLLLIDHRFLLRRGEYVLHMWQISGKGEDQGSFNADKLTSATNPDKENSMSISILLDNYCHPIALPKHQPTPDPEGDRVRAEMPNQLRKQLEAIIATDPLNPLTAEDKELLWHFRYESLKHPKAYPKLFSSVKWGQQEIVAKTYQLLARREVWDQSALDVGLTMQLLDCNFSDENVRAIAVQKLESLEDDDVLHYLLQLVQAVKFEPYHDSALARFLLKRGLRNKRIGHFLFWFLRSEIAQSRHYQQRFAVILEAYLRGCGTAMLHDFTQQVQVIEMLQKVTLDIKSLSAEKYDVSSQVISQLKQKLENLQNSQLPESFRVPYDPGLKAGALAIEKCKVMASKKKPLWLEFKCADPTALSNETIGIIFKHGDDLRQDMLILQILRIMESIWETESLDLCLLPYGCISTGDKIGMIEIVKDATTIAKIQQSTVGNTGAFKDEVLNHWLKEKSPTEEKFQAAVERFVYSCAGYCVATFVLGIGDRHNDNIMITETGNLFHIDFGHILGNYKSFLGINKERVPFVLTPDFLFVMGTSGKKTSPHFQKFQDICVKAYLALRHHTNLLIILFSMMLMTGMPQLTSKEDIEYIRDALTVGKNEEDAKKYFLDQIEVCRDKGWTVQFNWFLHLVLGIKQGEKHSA
T2 sequence (P42338 whole entry): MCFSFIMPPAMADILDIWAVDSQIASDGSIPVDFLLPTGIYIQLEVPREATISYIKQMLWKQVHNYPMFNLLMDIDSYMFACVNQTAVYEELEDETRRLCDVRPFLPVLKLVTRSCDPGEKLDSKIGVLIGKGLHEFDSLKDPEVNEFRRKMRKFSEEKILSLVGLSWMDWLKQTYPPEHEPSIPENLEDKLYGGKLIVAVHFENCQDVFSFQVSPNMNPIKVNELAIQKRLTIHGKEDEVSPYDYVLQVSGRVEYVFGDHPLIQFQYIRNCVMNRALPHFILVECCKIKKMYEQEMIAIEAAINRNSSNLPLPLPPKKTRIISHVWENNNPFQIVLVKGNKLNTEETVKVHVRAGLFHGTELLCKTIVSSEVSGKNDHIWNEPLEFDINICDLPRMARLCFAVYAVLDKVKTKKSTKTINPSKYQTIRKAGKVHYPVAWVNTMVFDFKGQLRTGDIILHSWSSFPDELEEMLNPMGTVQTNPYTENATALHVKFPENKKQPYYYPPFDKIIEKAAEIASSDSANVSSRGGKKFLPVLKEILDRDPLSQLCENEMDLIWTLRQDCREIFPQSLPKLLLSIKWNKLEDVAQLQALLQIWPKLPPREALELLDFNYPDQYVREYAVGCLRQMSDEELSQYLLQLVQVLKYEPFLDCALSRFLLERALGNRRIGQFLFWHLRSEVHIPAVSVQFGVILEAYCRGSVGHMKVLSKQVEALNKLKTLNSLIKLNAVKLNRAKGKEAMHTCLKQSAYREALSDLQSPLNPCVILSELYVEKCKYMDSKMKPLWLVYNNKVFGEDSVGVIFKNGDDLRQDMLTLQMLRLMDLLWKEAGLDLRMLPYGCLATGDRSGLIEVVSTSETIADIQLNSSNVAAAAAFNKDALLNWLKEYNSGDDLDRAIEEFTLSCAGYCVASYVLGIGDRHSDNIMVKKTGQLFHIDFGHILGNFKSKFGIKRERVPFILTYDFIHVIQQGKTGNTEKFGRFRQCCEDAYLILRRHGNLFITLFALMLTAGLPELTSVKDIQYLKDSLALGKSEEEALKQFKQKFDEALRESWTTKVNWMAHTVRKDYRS
T2 sequence (P27986 whole entry partner): as the sequence (P27986 whole entry partner) above
T1 sequence (O00329 whole entry): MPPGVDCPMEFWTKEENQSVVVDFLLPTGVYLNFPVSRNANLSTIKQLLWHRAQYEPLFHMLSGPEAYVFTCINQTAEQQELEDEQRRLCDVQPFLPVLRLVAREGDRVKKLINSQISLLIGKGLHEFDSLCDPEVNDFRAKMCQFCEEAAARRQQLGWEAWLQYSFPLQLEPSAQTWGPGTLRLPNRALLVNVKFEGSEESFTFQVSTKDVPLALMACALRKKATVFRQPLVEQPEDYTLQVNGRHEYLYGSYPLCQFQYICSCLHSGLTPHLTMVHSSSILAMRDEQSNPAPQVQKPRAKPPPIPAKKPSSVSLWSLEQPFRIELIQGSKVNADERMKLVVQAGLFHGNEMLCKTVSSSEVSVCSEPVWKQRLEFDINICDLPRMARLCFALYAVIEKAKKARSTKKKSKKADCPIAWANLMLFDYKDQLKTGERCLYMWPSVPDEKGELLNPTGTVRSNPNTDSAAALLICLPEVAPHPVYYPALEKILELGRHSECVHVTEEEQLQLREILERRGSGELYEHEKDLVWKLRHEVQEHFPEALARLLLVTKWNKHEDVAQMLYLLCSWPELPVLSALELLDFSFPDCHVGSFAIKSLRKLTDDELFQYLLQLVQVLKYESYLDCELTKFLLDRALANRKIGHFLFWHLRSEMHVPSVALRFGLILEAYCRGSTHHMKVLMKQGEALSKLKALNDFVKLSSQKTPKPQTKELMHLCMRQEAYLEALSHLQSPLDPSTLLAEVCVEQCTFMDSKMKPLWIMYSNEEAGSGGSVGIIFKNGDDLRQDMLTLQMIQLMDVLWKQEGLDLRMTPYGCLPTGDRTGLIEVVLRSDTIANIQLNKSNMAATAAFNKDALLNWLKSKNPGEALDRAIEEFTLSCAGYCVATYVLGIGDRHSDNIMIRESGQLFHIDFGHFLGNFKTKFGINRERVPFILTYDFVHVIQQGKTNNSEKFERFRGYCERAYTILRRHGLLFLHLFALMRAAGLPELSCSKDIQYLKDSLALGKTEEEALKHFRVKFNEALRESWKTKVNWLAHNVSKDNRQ
T1 sequence (P27986 whole entry partner): as the sequence (P27986 whole entry partner) above

inhibition at 1 µM (Human PI3K delta) [%] | inhibition at 1.1 µM (Human PI3K beta) [%] | inhibition at 1 µM (Human PI3K gamma) [%] | inhibition at 1.1 µM (Human PI3K alpha) [%] | p110 delta Percent Inhibition (Human PI3K delta) [%] | p110 beta Percent Inhibition (Human PI3K beta) [%] | p110 gamma Percent Inhibition (Human PI3K gamma) [%] | p110 alpha Percent Inhibition (Human PI3K alpha) [%] | Compound
35 | 54 | 6 | 2 |  |  |  |  | Nc1nccc(-c2sc(-c3ccncc3)nc2Cc2ccc(Cl)cc2)n1 [Compound 150, 4-(4-(4-chlorobenzyl)-2-(pyridin-4-yl)thiazol-5-yl)pyrimidin-2-amine]
108 | 105 | 17 | 72 |  |  |  |  | CC(=O)Nc1cc(-c2cc(C(c3ccc(Cl)cc3)N3CCC3)c(-c3nnc[nH]3)s2)ccn1 (stereo not drawn) [Compound 151]
106 | 97 | 16 | 61 |  |  |  |  | COC(=O)Nc1cc(-c2cc(C(c3ccc(Cl)cc3)N3CCNCC3)c(-c3nnc[nH]3)s2)ccn1 (stereo not drawn) [Compound 152]
87 | 84 | 11 | 75 |  |  |  |  | CC(=O)Nc1cc(-c2sc(-c3nnc[nH]3)c(C(O)c3ccc4ccccc4n3)c2C#N)ccn1 (stereo not drawn) [Compound 153]
108 | 108 | 39 | 79 |  |  |  |  | CC(=O)Nc1cc(-c2cc(C(c3ccc(Cl)cc3)N3CCNCC3)c(-c3nnc[nH]3)s2)ccn1 (stereo not drawn) [Compound 154]
53 | 64 | 28 | 29 |  |  |  |  | OC(c1ccccc1F)c1cc(-c2ccncc2)sc1-c1nnc[nH]1 (stereo not drawn) [Compound 155]
101 | 68 | 7 | 55 |  |  |  |  | CC(=O)Nc1cc(-c2cc(C(c3ccc(Cl)cc3)N3CCN(CC(F)(F)F)CC3)c(-c3nnc[nH]3)s2)ccn1 (stereo not drawn) [Compound 157]
69 | 94 | 20 | 18 |  |  |  |  | COc1ccc(C(O)c2cc(-c3ccncc3)sc2-c2nnc[nH]2)c(C)c1 (stereo not drawn) [Compound 158]
31 | 61 | 5 | 18 |  |  |  |  | OC(c1cccc(C(F)(F)F)c1)c1cc(-c2ccncc2)sc1-c1nnc[nH]1 (stereo not drawn) [Compound 159]
107 | 101 | 20 | 74 |  |  |  |  | CC(=O)Nc1cc(-c2cc(C(c3ccc(Cl)cc3)N(C)C3CN(C)C3)c(-c3nnc[nH]3)s2)ccn1 (stereo not drawn) [Compound 160]
40 | 60 | 7 | 14 |  |  |  |  | Cc1cc(-c2cc(C(c3ccc(Cl)cc3)N(C)C)c(-c3nnc[nH]3)s2)ccn1 (stereo not drawn) [Compound 161]
83 | 93 | 33 | 38 |  |  |  |  | OC(c1ccc(F)cc1F)c1cc(-c2ccncc2)sc1-c1nnc[nH]1 (stereo not drawn) [Compound 162]
106 | 110 | 25 | 97 |  |  |  |  | CN[C@H]1CCN(C(c2ccc(Cl)cc2)c2cc(-c3ccnc(NC(C)=O)c3)sc2-c2nnc[nH]2)C1 (stereo partly drawn) [Compound 163]
112 | 107 | 44 | 100 |  |  |  |  | CC(=O)Nc1cc(-c2cc(C(c3ccc(Cl)cc3)N3CC[C@H](O)C3)c(-c3nnc[nH]3)s2)ccn1 (stereo partly drawn) [Compound 164]
87 | 77 | 14 | 64 |  |  |  |  | CC(=O)Nc1cc(-c2sc(-c3nnc[nH]3)c(C(O)c3ccc(Cl)cc3)c2C#N)ccn1 (stereo not drawn) [Compound 165]
85 | 82 | 3 | 92 |  |  |  |  | CC(=O)Nc1cc(-c2sc(-c3nnc[nH]3)c(Sc3ccc(Cl)cc3)c2C#N)ccn1 [Compound 166]
110 | 103 | 26 | 105 |  |  |  |  | CC(=O)Nc1cc(-c2cc(C(c3ccc(Cl)cc3)n3ccnc3)c(-c3nnc[nH]3)s2)ccn1 (stereo not drawn) [Compound 167]
 |  |  |  | 110 | 107 | 58 | 23 | COc1cc(C(O)c2cc(-c3ccnnc3)sc2-c2nnc[nH]2)c(F)cc1Cl (stereo not drawn) [Compound 168]
65 | 89 | 7 | 65 |  |  |  |  | OC(c1cc(-c2ccncc2)sc1-c1nnc[nH]1)c1cccc2nccnc12 (stereo not drawn) [Compound 169]
105 | 106 | 26 | 84 |  |  |  |  | CNC1CN(C(c2ccc(Cl)cc2)c2cc(-c3ccnc(NC(C)=O)c3)sc2-c2nnc[nH]2)C1 (stereo not drawn) [Compound 170]
99 | 106 | 60 | 59 |  |  |  |  | OC(c1ccc2ccccc2n1)c1cc(-c2ccncc2)sc1-c1nnc[nH]1 (stereo not drawn) [Compound 171]
60 | 101 | 6 | 28 |  |  |  |  | N#Cc1c(-c2ccnnc2)sc(-c2nnc[nH]2)c1C(c1ccc2ccccc2c1)N1CCNCC1 (stereo not drawn) [Compound 172]
83 | 67 | 3 | 69 |  |  |  |  | CC(=O)Nc1cc(-c2cc(C(OCC3CCCC3)c3ccc(Cl)cc3)c(-c3nnc[nH]3)s2)ccn1 (stereo not drawn) [Compound 173]
59 | 70 | 8 | 15 |  |  |  |  | Cc1ccc(C(O)c2cc(-c3ccncc3)sc2-c2nnc[nH]2)cc1C (stereo not drawn) [Compound 174]
36 | 85 | 7 | 19 |  |  |  |  | OC(c1cc(-c2ccncc2)sc1-c1nnc[nH]1)c1ccnc2ccccc12 (stereo not drawn) [Compound 175]
106 | 100 | 34 | 79 |  |  |  |  | CC(=O)Nc1cc(-c2nc(Cc3ccc4ccccc4c3)c(C(=O)O)s2)ccn1 [Compound 177, 2-(2-acetamidopyridin-4-yl)-4-(naphthalen-2-ylmethyl)thiazole-5-carboxylic acid]
88 | 109 | 38 | 20 |  |  |  |  | Oc1cc(-c2sc(-c3ccncc3)nc2Cc2ccc(Cl)cc2)[nH]n1 [Compound 178, 5-(4-(4-chlorobenzyl)-2-(pyridin-4-yl)thiazol-5-yl)-1H-pyrazol-3-ol]
